System: D2/3R
Assay: Kinetic analysis of PET data (1TCM, 2TCM, Logan, SRTM);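 on 2TCM BPND change relative to control: Raclopride 1 mg/kg intravenous pretreatment versus saline controls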;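 on SRTM BPND change relative to control: Raclopride 1 mg/kg intravenous pretreatment versus saline controls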
Format: in vivo, Sprague-Dawley rats
Set-up: key to SRTM BPND / 1TCM BPND / 2TCM BPND (VT-based): BPND = VT(target)/VT(cerebellum) − 1 (or SRTM, cerebellum reference); SRTM BPND change relative to control / 1TCM BPND change relative to control / 2TCM BPND change relative to control / Logan BPND change relative to control: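 Raclopride 1 mg/kg intravenous pretreatment versus saline controls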; 1TCM VT / 2TCM VT: unit not given here
Description: Kinetic analysis is described using the nomenclature proposed by Innis et al.. ROI TACs of [^18F]FEt-AMC13 were analyzed with one-tissue and two-tissue compartmental models of reversible binding (1TCM and 2TCM, respectively) to obtain individual rate constants. From these, the regional distribution volumes (VT) were calculated and compared to those obtained with Logan graphical analysis. Binding potentials (BPND) were calculated from the distribution ratios as VT (target) / VT (cerebellum) – 1, or estimated with the simplified reference tissue model (SRTM) using the cerebellum as reference region.
Metabolite-corrected plasma-derived arterial input function and whole blood time-activity curve were used for Logan, 1TCM, and 2TCM analyses. Fractional cerebral blood volume was set to 3.6 % [27]. For one rat in the raclopride-treated group, no input curves could be obtained; therefore, its PET data were only analyzed with SRTM.
Degree of D2/3R-specific binding of the tracers was characterized by BPND (as given above) or the specific binding ratio (SBR) given as target region activity/cerebellar activity - 1. Both were calculated under control conditions and in response to the raclopride challenge.

[1] = Pituitary, raclopride, listed as [18F]FEt-AMC13
[2] = Striatum, raclopride, listed as [18F]FEt-AMC13
[3] = Thalamus, raclopride, listed as [18F]FEt-AMC13

- 1TCM VT (Striatum, control): 7.60±0.64
- 2TCM VT (Striatum, control): 7.90±0.84
- Logan VT (Striatum, control): 7.72±0.84
- 1TCM VT (Striatum, raclopride): 6.69±0.41
- 2TCM VT (Striatum, raclopride): 6.97±0.39
- Logan VT (Striatum, raclopride): 6.97±0.32
- 1TCM VT (Thalamus, control): 6.45±0.62
- 2TCM VT (Thalamus, control): 6.75±0.62
- Logan VT (Thalamus, control): 6.64±0.61
- 1TCM VT (Thalamus, raclopride): 5.93±0.71
- 2TCM VT (Thalamus, raclopride): 6.44±0.60
- Logan VT (Thalamus, raclopride): 6.40±0.40
Compound: Oc1ccc2c(c1)O[C@@H](CNCc1ccc(OCC[18F])cc1)CC2 [[^18F]FEt-AMC13]
- SRTM BPND (Pituitary, raclopride): 0.55 ± 0.53
- SRTM BPND change relative to control (Pituitary, raclopride): −22%
- 2TCM BPND change relative to control [1]: -23%
- SRTM BPND [1]: 0.55±0.53
- SRTM BPND change relative to control [1]: –22%
- 1TCM BPND (Striatum, control): 0.63 ± 0.08
- 2TCM BPND (VT-based) (Striatum, control): 0.56 ± 0.05
- Logan BPND (Striatum, control): 0.52 ± 0.01
- SRTM BPND (Striatum, control): 0.51 ± 0.02
- 1TCM K1 (Striatum, control rat A): 0.45 ± 0.03 mL/g/min
- 1TCM k2 (Striatum, control rat A): 0.05 ± 0.01 min⁻¹
- 2TCM K1 (Striatum, control rat A): 1.77 ± 0.62 mL/g/min
- 2TCM k2 (Striatum, control rat A): 4.95 ± 3.00 min⁻¹
- 2TCM k3 (Striatum, control rat A): 1.34 ± 0.29 min⁻¹
- 2TCM k4 (Striatum, control rat A): 0.05 ± 0.01 min⁻¹
- 1TCM K1 (Striatum, control rat B): 0.49 ± 0.02 mL/g/min
- 1TCM k2 (Striatum, control rat B): 0.06 ± 0.01 min⁻¹
- 2TCM K1 (Striatum, control rat B): 0.63 ± 0.14 mL/g/min
- 2TCM k2 (Striatum, control rat B): 0.48 ± 0.68 min⁻¹
- 2TCM k3 (Striatum, control rat B): 0.81 ± 1.13 min⁻¹
- 2TCM k4 (Striatum, control rat B): 0.17 ± 0.07 min⁻¹
- 1TCM K1 (Striatum, control rat C): 0.47 ± 0.02 mL/g/min
- 1TCM k2 (Striatum, control rat C): 0.07 ± 0.004 min⁻¹
- 2TCM K1 (Striatum, control rat C): 0.98 ± 0.85 mL/g/min
- 2TCM k2 (Striatum, control rat C): 3.47 ± 8.55 min⁻¹
- 2TCM k3 (Striatum, control rat C): 2.81 ± 3.01 min⁻¹
- 2TCM k4 (Striatum, control rat C): 0.11 ± 0.08 min⁻¹
- 1TCM K1 (Striatum, control rat D): 0.51 ± 0.02 mL/g/min
- 1TCM k2 (Striatum, control rat D): 0.07 ± 0.01 min⁻¹
- 2TCM K1 (Striatum, control rat D): 8.06 ± 30.34 mL/g/min
- 2TCM k2 (Striatum, control rat D): 58.0 ± 203.8 min⁻¹
- 2TCM k3 (Striatum, control rat D): 3.54 ± 188.40 min⁻¹
- 2TCM k4 (Striatum, control rat D): 0.07 ± 263.98 min⁻¹
- 1TCM BPND (Striatum, raclopride): 0.51±0.06
- 1TCM BPND change relative to control (Striatum, raclopride): -18%
- 2TCM BPND (VT-based) (Striatum, raclopride): 0.41 ± 0.05
- 2TCM BPND change relative to control (Striatum, raclopride): −27%
- Logan BPND (Striatum, raclopride): 0.40±0.04
- Logan BPND change relative to control (Striatum, raclopride): -24%
- SRTM BPND (Striatum, raclopride): 0.38 ± 0.05
- SRTM BPND change relative to control (Striatum, raclopride): −26%
- 2TCM BPND (VT-based) [2]: 0.41±0.05
- 2TCM BPND change relative to control [2]: -27%
- SRTM BPND [2]: 0.38±0.05
- SRTM BPND change relative to control [2]: –26%
- 1TCM BPND (Thalamus, control): 0.38±0.06
- 2TCM BPND (VT-based) (Thalamus, control): 0.33 ± 0.02
- Logan BPND (Thalamus, control): 0.31±0.02
- SRTM BPND (Thalamus, control): 0.28 ± 0.06
- 1TCM K1 (Thalamus, control rat A): 0.44 ± 0.02 mL/g/min
- 1TCM k2 (Thalamus, control rat A): 0.06 ± 0.01 min⁻¹
- 2TCM K1 (Thalamus, control rat A): 14.0 ± 117.5 mL/g/min
- 2TCM k2 (Thalamus, control rat A): 104 ± 848 min⁻¹
- 2TCM k3 (Thalamus, control rat A): 3.05 ± 820.48 min⁻¹
- 2TCM k4 (Thalamus, control rat A): 0.05 ± 961.03 min⁻¹
- 1TCM K1 (Thalamus, control rat B): 0.65 ± 0.03 mL/g/min
- 1TCM k2 (Thalamus, control rat B): 0.10 ± 0.01 min⁻¹
- 2TCM K1 (Thalamus, control rat B): 0.88 ± 0.12 mL/g/min
- 2TCM k2 (Thalamus, control rat B): 0.58 ± 0.58 min⁻¹
- 2TCM k3 (Thalamus, control rat B): 0.67 ± 1.63 min⁻¹
- 2TCM k4 (Thalamus, control rat B): 0.19 ± 1.99 min⁻¹
- 1TCM K1 (Thalamus, control rat C): 0.55 ± 0.02 mL/g/min
- 1TCM k2 (Thalamus, control rat C): 0.09 ± 0.01 min⁻¹
- 2TCM K1 (Thalamus, control rat C): 0.71 ± 0.13 mL/g/min
- 2TCM k2 (Thalamus, control rat C): 0.48 ± 0.97 min⁻¹
- 2TCM k3 (Thalamus, control rat C): 0.76 ± 3.17 min⁻¹
- 2TCM k4 (Thalamus, control rat C): 0.23 ± 3.61 min⁻¹
- 1TCM K1 (Thalamus, control rat D): 0.64 ± 0.03 mL/g/min
- 1TCM k2 (Thalamus, control rat D): 0.11 ± 0.01 min⁻¹
- 2TCM K1 (Thalamus, control rat D): 3.13 ± 3.18 mL/g/min
- 2TCM k2 (Thalamus, control rat D): 12.3 ± 18.9 min⁻¹
- 2TCM k3 (Thalamus, control rat D): 2.61 ± 0.96 min⁻¹
- 2TCM k4 (Thalamus, control rat D): 0.11 ± 0.02 min⁻¹
- 1TCM BPND (Thalamus, raclopride): 0.33±0.04
- 1TCM BPND change relative to control (Thalamus, raclopride): -12%
- 2TCM BPND (VT-based) (Thalamus, raclopride): 0.30 ± 0.01
- 2TCM BPND change relative to control (Thalamus, raclopride): −10%
- Logan BPND (Thalamus, raclopride): 0.28±0.005
- Logan BPND change relative to control (Thalamus, raclopride): -10%
- SRTM BPND (Thalamus, raclopride): 0.26 ± 0.02
- SRTM BPND change relative to control (Thalamus, raclopride): −7%
- 2TCM BPND (VT-based) [3]: 0.30±0.01
- 2TCM BPND change relative to control [3]: -10%
- SRTM BPND [3]: 0.26±0.02
- SRTM BPND change relative to control [3]: –7%
- part of cerebellar VT potentially displaceable (D2/3R specific binding) (modified Lassen plot): 11–26%
- part of striatal VT potentially displaceable (D2/3R specific binding) (modified Lassen plot): 41–55%
- Striatal BPND relative to cerebellum (range depending on the estimation method): 0.51–0.63
